{"source": "patent US20250255930A1", "about": "“METHODS OF TREATMENT OF TINNITUS USING DERIVATIVES OF OXYTOCIN” (MASKBEGONE LLC, priority 2024, published 2025)", "assay": "clinical use of intranasal oxytocin formulations to treat tinnitus (patient case reports)", "type": "in vivo, human", "description": "According to an embodiment, this disclosure provides a method for treating tinnitus. The method comprises administering intranasally to an individual a composition comprising or consisting essentially of oxytocin, wherein such administration results in treatment of tinnitus. The effectiveness of treatment of tinnitus may be monitored by quantifying tinnitus, such as by self-evaluation using clinically accepted techniques. An example is the Tinnitus Handicap Inventory (“THI”), a validated and published measurement technique. (Newman et al., Arch Otolaryngol Head Neck Surg, 1996 February 122 (2), 143-8). In an embodiment, the improvement in an individual using THI may comprise an improvement of at least 10%. In various embodiments, the improvement may comprise from 10-100%, such as at least 20, 30, 40, 50, 60, 70, 80, 90, 95, or 99%.\nThis example describes clinical use of the present formulations to treat tinnitus. […] A compounded formulation of oxytocin that provided a dose of 60 IU daily (30 IU twice daily) was then used. The formulation contained oxytocin, magnesium chloride, citric acid, and sodium citrate in sterile water. […] The dose was then increased to 45 IU (3 sprays of 15 IU) 4 times daily. […] A thickener was then added to the formulation keeping the oxytocin amount the same. […] Their score on the Tinnitus Handicap Inventory reduced from a pretreatment score of 96 (meaning a catastrophic level) to a current score of 14 (meaning mild or no tinnitus). The patient has remained improved over 1 year since initiating therapy. Their current dose is 22.5 IU in each nostril 4 times daily. Since their tinnitus occurs in distinct cycles, at times when tinnitus severity is loudest, they increase the dose to 5 times daily for 2 days. […] Their current handicap inventory is 8.", "key": {"[1]": {"settings": "first patient, 22.5 IU in each nostril 4 times daily, 5 times daily for 2 days when loudest, past 3 months"}, "[2]": {"settings": "patient with constant tinnitus, 30 IU 4 times daily, after 2 weeks"}, "[3]": {"settings": "second patient, 45 IU twice daily"}}, "data": [{"smiles": "CC[C@H](C)[C@@H]1NC(=O)[C@H](Cc2ccc(O)cc2)NC(=O)[C@@H](N)CSSC[C@@H](C(=O)N2CCC[C@H]2C(=O)N[C@@H](CC(C)C)C(=O)NCC(N)=O)NC(=O)[C@H](CC(N)=O)NC(=O)[C@H](CCC(N)=O)NC1=O", "note": "[oxytocin, Cys-Tyr-Ile-Gln-Asn-Cys-Pro-Leu-Gly]", "values": [{"measurement": "time patient has remained improved since initiating therapy", "setting": "first patient", "value": "over 1 year"}, {"measurement": "current handicap inventory", "setting": "first patient, 22.5 IU in each nostril 4 times daily, 5 times daily for 2 days when loudest", "value": 8}, {"measurement": "time without tinnitus", "setting": "[1]", "value": "≤ 10", "unit": "days"}, {"measurement": "tinnitus severity", "setting": "[1]", "value": "reduced tinnitus severity"}, {"measurement": "relief of tinnitus", "setting": "first patient, 45 IU (3 sprays of 15 IU) 4 times daily", "value": "significant relief"}, {"measurement": "patient-reported benefit", "setting": "first patient, 60 IU daily (30 IU twice daily), oxytocin, magnesium chloride, citric acid, sodium citrate in sterile water", "value": "partial benefit"}, {"measurement": "score on the Tinnitus Handicap Inventory", "setting": "first patient, after treatment with thickener formulation, pretreatment score 96", "value": 14}, {"measurement": "relief of tinnitus", "setting": "first patient, initial dose of less than 20 IU daily", "value": "did not provide any relief"}, {"measurement": "tinnitus free period", "setting": "first patient, thickener added to formulation, oxytocin amount the same (45 IU 4 times daily)", "value": "several days of tinnitus free period"}, {"measurement": "relief of tinnitus", "setting": "lower amounts of oxytocin (such as under 20 IU per day)", "value": "did not result in any significant relief"}, {"measurement": "improvement", "setting": "patient with constant tinnitus after neck injury, 45 IU (22.5 IU in each nostril) 4 times daily for 30 days", "value": "about 15%"}, {"measurement": "tinnitus volume", "setting": "patient with constant tinnitus after neck injury, dose raised to 5 times daily on occasions", "value": "diminished tinnitus volume"}, {"measurement": "time without noticing the tinnitus", "setting": "[2]", "value": "several hours per day without noticing the tinnitus"}, {"measurement": "tinnitus intensity", "setting": "[2]", "value": "tinnitus intensity has lowered"}, {"measurement": "benefit", "setting": "patient with drug-caused tinnitus, 30 IU twice daily", "value": "without benefit"}, {"measurement": "decrease in tinnitus volume", "setting": "patient with drug-caused tinnitus, 45 IU 4 times daily", "value": "approximately 30%"}, {"measurement": "benefit", "setting": "[3]", "value": "significant benefit"}, {"measurement": "reduction of tinnitus volume", "setting": "[3]", "value": "45-60%"}, {"measurement": "time patient remains improved", "setting": "[3]", "value": "more than a year"}, {"measurement": "tinnitus free days", "setting": "[3]", "value": "some days in which they are tinnitus free"}]}]}
